Legend:
Rattus norvegicus [1] = species: Rattus norvegicus; type: functional; settings: dose 10.3 mg/kg
Rattus norvegicus [2] = species: Rattus norvegicus; type: functional; settings: dose 10.3 mg/kg; remark: listed apart in the source
Rattus norvegicus [3] = species: Rattus norvegicus; type: functional; settings: dose 10.3 mg/kg; remark: listed apart in the source
Rattus norvegicus [4] = species: Rattus norvegicus; type: functional; settings: dose 10.3 mg/kg; remark: listed apart in the source
Rattus norvegicus [5] = species: Rattus norvegicus; type: functional; settings: dose 10.3 mg/kg; remark: listed apart in the source
Rattus norvegicus [6] = species: Rattus norvegicus; type: functional; settings: dose 10.3 mg/kg; remark: listed apart in the source
Rattus norvegicus [7] = species: Rattus norvegicus; type: functional; settings: dose 10.3 mg/kg; remark: listed apart in the source
Rattus norvegicus [8] = species: Rattus norvegicus; type: functional
Rattus norvegicus [9] = species: Rattus norvegicus; type: functional; settings: dose 10 mg/kg
Rattus norvegicus [10] = species: Rattus norvegicus; type: functional; remark: listed apart in the source
Rattus norvegicus [11] = species: Rattus norvegicus; type: functional; remark: listed apart in the source
Rattus norvegicus [12] = species: Rattus norvegicus; type: functional; remark: listed apart in the source
Rattus norvegicus [13] = species: Rattus norvegicus; type: functional; remark: listed apart in the source
Rattus norvegicus [14] = species: Rattus norvegicus; type: functional; remark: listed apart in the source
Aromatase = molecular target: T1, Aromatase (Rattus norvegicus, UniProt P22443)
T1 sequence (P22443 whole entry): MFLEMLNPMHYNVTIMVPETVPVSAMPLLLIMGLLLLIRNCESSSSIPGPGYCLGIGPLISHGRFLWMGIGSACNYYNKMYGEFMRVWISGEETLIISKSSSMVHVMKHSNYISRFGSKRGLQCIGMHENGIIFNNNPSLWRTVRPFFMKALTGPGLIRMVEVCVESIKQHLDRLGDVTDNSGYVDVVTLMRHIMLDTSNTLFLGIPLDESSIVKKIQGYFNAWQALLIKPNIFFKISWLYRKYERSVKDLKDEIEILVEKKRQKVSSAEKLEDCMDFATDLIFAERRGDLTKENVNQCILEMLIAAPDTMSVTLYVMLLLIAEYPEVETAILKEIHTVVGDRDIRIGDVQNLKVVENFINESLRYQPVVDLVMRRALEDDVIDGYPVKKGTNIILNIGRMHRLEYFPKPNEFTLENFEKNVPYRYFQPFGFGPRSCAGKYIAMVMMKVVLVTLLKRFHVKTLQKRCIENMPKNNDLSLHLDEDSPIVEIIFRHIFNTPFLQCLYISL

Rattus norvegicus [15] = species: Rattus norvegicus; type: functional; settings: dose 10 mg/kg; remark: listed apart in the source
Rattus norvegicus [16] = species: Rattus norvegicus; type: functional; settings: dose 10 mg/kg; remark: listed apart in the source
Rattus norvegicus [17] = species: Rattus norvegicus; type: functional; settings: dose 10 mg/kg; remark: listed apart in the source
Rattus norvegicus [18] = species: Rattus norvegicus; type: functional; settings: dose 10 mg/kg; remark: listed apart in the source
Rattus norvegicus [19] = species: Rattus norvegicus; type: functional; settings: dose 10 mg/kg; remark: listed apart in the source
Rattus norvegicus [20] = species: Rattus norvegicus; type: functional; settings: dose 10 mg/kg; remark: listed apart in the source
Rattus norvegicus [21] = species: Rattus norvegicus; type: functional; settings: dose 10 mg/kg; remark: listed apart in the source

SMILES: Oc1cccc2c1CCC(Cc1ccncc1)C2 (stereo not drawn)
- Change of tumor area (Rattus norvegicus [1]): 19%
- No. of tumors (Rattus norvegicus [2]): 4
- Change of tumor area (Rattus norvegicus [3]): 41%
- Change of tumor area (Rattus norvegicus [4]): 16%
- Change of tumor area (Rattus norvegicus [5]): 123%
- Change of tumor area (Rattus norvegicus [6]): 24%
- No. of tumors (Rattus norvegicus [7]): 37

SMILES: CCC(=O)OC1CCC2C3CCC4=CC(=O)CCC4C3CCC12C (stereo not drawn)
- Change of tumor area (Rattus norvegicus [8]): 25%
- Change of tumor area (Rattus norvegicus [9]): 141%
- No. of tumors (Rattus norvegicus [10]): 12
- Change of tumor area (Rattus norvegicus [11]): 36%
- No. of tumors (Rattus norvegicus [12]): 36
- Change of tumor area (Rattus norvegicus [13]): 19%
- Change of tumor area (Rattus norvegicus [14]): 19%

SMILES: COc1ccc2c(c1)CC(Cc1ccncc1)C2=O (stereo not drawn)
- Effect (Aromatase): 150

SMILES: CCC1(c2ccc(N)cc2)CCC(=O)NC1=O (stereo not drawn) [AMINOGLUTETHIMIDE]
- No. of tumors (Rattus norvegicus [15]): 7
- No. of tumors (Rattus norvegicus [16]): 35
- Change of tumor area (Rattus norvegicus [17]): 4%
- Change of tumor area (Rattus norvegicus [18]): 23%
- Change of tumor area (Rattus norvegicus [19]): 17%
- Change of tumor area (Rattus norvegicus [20]): 54%
- Of tumors (Rattus norvegicus [21]): 6%

SMILES: O=C1c2ccc(O)cc2CC1Cc1ccncc1 (stereo not drawn)
- Effect (Aromatase): 160
